Target: T1, KIBRA-PKMζ[PKCι/λ-P291Q;F297S] interaction (Homo sapiens, UniProt Q05513, F480S/P474Q)
T1 construct: expressed in transfected cells; host or cells: HEK293T
T1 sequence (Q05513 184-592 P474Q/F480S): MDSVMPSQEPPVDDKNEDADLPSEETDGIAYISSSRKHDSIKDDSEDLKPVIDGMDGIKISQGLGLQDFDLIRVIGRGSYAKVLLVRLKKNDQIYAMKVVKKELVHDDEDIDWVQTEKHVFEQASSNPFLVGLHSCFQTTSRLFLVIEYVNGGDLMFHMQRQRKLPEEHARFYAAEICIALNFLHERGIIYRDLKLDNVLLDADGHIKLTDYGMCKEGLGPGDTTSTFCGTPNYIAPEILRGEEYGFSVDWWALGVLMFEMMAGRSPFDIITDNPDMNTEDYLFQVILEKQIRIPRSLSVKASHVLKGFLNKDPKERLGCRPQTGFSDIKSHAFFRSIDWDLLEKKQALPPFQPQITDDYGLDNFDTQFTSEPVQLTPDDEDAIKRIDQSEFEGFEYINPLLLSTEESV
Assay: BiFC assay of KIBRA with mutant PKMζ[PKCι/λ-P291Q;F297S] in HEK293T cells
Format: cell-based
Conditions: 10 μM
Method: KIBRA-PKMζ BiFC was performed as previously described (28), using pVen1-FLAG-KIBRA and pVen2-HA-PKMζ, in which PKMζ was cloned between EcoR1 and BamH1 sites. The constructs pVen1 and pVen2 encode the N-terminus (amino acids 1-154) and C-terminus (amino acids 155-238) of the Venus protein, respectively, and the Venus fragments were on the N-terminal of the fusion proteins. pVen2-HA-PKMζ[PKCι/λ-P291Q;F297S] was generated by site-directed mutagenesis using forward-cctggagAagcAAatceggatcccccggtCcctgtccgte and reverse-gacggacaggGaccgggggatccggatTTgctTctccagg primers and the QuickChange II XL Site-Directed Mutagenesis Kit (Agilent Technologies), following manufacturer's instructions. Additional pVen2-HA-PKC isoforms and pVen2-HA-CaMKIIα in the pVen2-HA vector were generated by cloning the N-terminus of the coding sequence of each kinase (table S1) to obtain an in-frame fusion at the C-terminus of the pVen2-HA. Human versions of KIBRA and kinases were used, and all PCR amplified sequences and constructs were verified by DNA sequencing.
HEK293T cells were cultured in Dulbecco's Modified Eagle's Medium supplemented with 10% heat-inactivated fetal bovine serum, 100 U/ml penicillin, […] streptomycin, 2 mM glutamine, and 10 mM HEPES in a T75 tissue culture flask with canted neck and ventilated cap. […]

effect on KIBRA interaction with mutated PKMζ[PKCι/λ-P291Q;F297S] (BiFC): does not inhibit
effect on KIBRA interaction with mutated PKMζ[PKCι/λ-P291Q;F297S] (BiFC) (listed as z-stat): has no effects
SMILES: O=S(=O)(O)c1cc(O)c2c(S(=O)(=O)O)cc(S(=O)(=O)O)cc2c1 [ζ-stat, 1-naphthol-3,6,8-trisulphonic acid]

From US20250154212A1, “METHOD OF DISRUPTING MEMORY AND LIPOPEPTIDE FOR USE IN SUCH METHOD” (The Research Foundation for The State University of New York, priority 2023, published 2025)
